According to PMC8749467, “A new ALK inhibitor overcomes resistance to first‐ and second‐generation inhibitors in NSCLC” (EMBO Molecular Medicine, 2021):
pIC50: −log10 of the molar value. Like-named read-outs stand apart in the source and are kept apart here. Each block holds one compound with its values, some of them ahead of it.

Key:
EML4-ALK Ba/F3 cells = assay: Cell survival assay (MTS); settings: EML4-ALK Ba/F3, 48 h
[1] = Pharmacokinetics in ICR mice; format: in vivo; settings: for concentration at […] / concentration at 0.25 h / concentration at 0.5 h / concentration at 1 h / concentration at 2 h / concentration at 4 h / concentration at 8 h / concentration at 24 h: ICR, blood, read-out: Blood drug concentration; for concentration at […]: 0.083 h; for MRT inf: read-out: MRT(0-∞); for Vd: read-out: Vz;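 as to all read-outs here: drug levels in collected samples measured by LC-MS/MS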
kinase panels = settings: cited from earlier work
[2] = test system: parental (wild-type) Ba/F3 cells; assay: Cell survival assay (MTS); format: cell-based, murine; settings: Mus musculus, BaF3, 48 h
[3] = mouse, plasma, IV, 5 mg/kg, ICR mice
[4] = mouse, plasma, IV, 30 mg/kg, ICR mice
[5] = mouse, plasma, IV, 60 mg/kg, ICR mice
[6] = mouse, plasma, PO, 10 mg/kg, ICR mice
[7] = reported data ref Huber et al, 2014

SMILES: C[C@H]1Oc2cc(cnc2N)-c2c(nn(C)c2C#N)CN(C)C(=O)c2ccc(F)cc21 [Lorlatinib, lorlatinib]
- pIC50 (EML4-ALK Ba/F3 cells): 8.82

- concentration at […] ([1]; mouse, IV, 5 mg/kg, mice): 4300 ng/mL
- concentration at 0.25 h ([1]; mouse, IV, 5 mg/kg, mice): 2430 ng/mL
- concentration at 0.5 h ([1]; mouse, IV, 5 mg/kg, mice): 1530 ng/mL
- concentration at 1 h ([1]; mouse, IV, 5 mg/kg, mice): 613 ng/mL
- concentration at 2 h ([1]; mouse, IV, 5 mg/kg, mice): 308 ng/mL
- concentration at 4 h ([1]; mouse, IV, 5 mg/kg, mice): 72.8 ng/mL
- concentration at 8 h ([1]; mouse, IV, 5 mg/kg, mice): 28.7 ng/mL
- concentration at 24 h ([1]; mouse, IV, 5 mg/kg, mice): 2.09 ng/mL
- concentration at […] ([1]; mouse, IV, 30 mg/kg, mice): 8260 ng/mL
- concentration at 0.25 h ([1]; mouse, IV, 30 mg/kg, mice): 5430 ng/mL
- concentration at 0.5 h ([1]; mouse, IV, 30 mg/kg, mice): 3870 ng/mL
- concentration at 1 h ([1]; mouse, IV, 30 mg/kg, mice): 2990 ng/mL
- concentration at 2 h ([1]; mouse, IV, 30 mg/kg, mice): 2060 ng/mL
- concentration at 4 h ([1]; mouse, IV, 30 mg/kg, mice): 688 ng/mL
- concentration at 8 h ([1]; mouse, IV, 30 mg/kg, mice): 171 ng/mL
- concentration at 24 h ([1]; mouse, IV, 30 mg/kg, mice): 17.9 ng/mL
- concentration at […] ([1]; mouse, IV, 60 mg/kg, mice): 12400 ng/mL
- concentration at 0.25 h ([1]; mouse, IV, 60 mg/kg, mice): 7190 ng/mL
- concentration at 0.5 h ([1]; mouse, IV, 60 mg/kg, mice): 6430 ng/mL
- concentration at 1 h ([1]; mouse, IV, 60 mg/kg, mice): 5430 ng/mL
- concentration at 2 h ([1]; mouse, IV, 60 mg/kg, mice): 2910 ng/mL
- concentration at 4 h ([1]; mouse, IV, 60 mg/kg, mice): 2580 ng/mL
- concentration at 8 h ([1]; mouse, IV, 60 mg/kg, mice): 555 ng/mL
- concentration at 24 h ([1]; mouse, IV, 60 mg/kg, mice): 29.6 ng/mL
- dose dependence of blood drug concentrations ([1]; IV, 5, 30 and 60 mg/kg, mice): linear increase
- AUC(0-inf) [1, 3]: 3310 ng·h/mL
- AUC(0-t) [1, 3]: 3300 ng·h/mL
- C0 [1, 3]: 5720 ng/mL
- Cmax [1, 3]: 4300 ng/mL
- Tmax [1, 3]: 0.08 h
- clearance [1, 3]: 25.2 mL/min/kg
- half-life [1, 3]: 3.99 h
- MRT inf [1, 3]: 1.74 h
- Vd [1, 3]: 8.7 L/kg
- AUC(0-inf) [1, 4]: 13200 ng·h/mL
- AUC(0-t) [1, 4]: 13100 ng·h/mL
- C0 [1, 4]: 10200 ng/mL
- clearance [1, 4]: 37.8 mL/min/kg
- half-life [1, 4]: 4.93 h
- MRT inf [1, 4]: 2.95 h
- Vd [1, 4]: 6.7 L/kg
- AUC(0-inf) [1, 5]: 26400 ng·h/mL
- AUC(0-t) [1, 5]: 26200 ng·h/mL
- C0 [1, 5]: 16300 ng/mL
- clearance [1, 5]: 37.8 mL/min/kg
- half-life [1, 5]: 4.01 h
- MRT inf [1, 5]: 3.39 h
- Vd [1, 5]: 7.71 L/kg
- AUC(0-inf) [1, 6]: 1270 ng·h/mL
- AUC(0-t) [1, 6]: 1210 ng·h/mL
- Cmax [1, 6]: 474 ng/mL
- Tmax [1, 6]: 0.5 h
- half-life [1, 6]: 1.53 h
- bioavailability ([1]; mouse, plasma, PO, 10 mg/kg, ICR mice, read-out: F (oral bioavailability)): 18.3%
- MRT inf [1, 6]: 3.08 h
SMILES: COc1cc2c(cc1Nc1nc(Nc3ccccc3S(=O)(=O)C(C)C)c3[nH]ccc3n1)N(C(=O)CN(C)C)CC2 [XMU-MP-5]

SMILES: COc1cc(N2CCC(N3CCN(C)CC3)CC2)ccc1Nc1ncc(Cl)c(Nc2ccccc2P(C)(C)=O)n1 [Brigatinib, brigatinib]
- S(10) (kinase panels; reported data ref Zhang et al, 2016): 0.34
- pIC50 (EML4-ALK Ba/F3 cells; Mus musculus, BaF3, 48 h): 7.76

SMILES: Cc1cc(Nc2ncc(Cl)c(Nc3ccccc3S(=O)(=O)C(C)C)n2)c(OC(C)C)cc1C1CCNCC1 [Ceritinib, ceritinib]
- S(10) (kinase panels; reported data ref Jang et al, 2017): 0.19
- pIC50 (EML4-ALK Ba/F3 cells; Mus musculus, BaF3, 48 h): 8.92

SMILES: C[C@@H](Oc1cc(-c2cnn(C3CCNCC3)c2)cnc1N)c1c(Cl)ccc(F)c1Cl [Crizotinib, crizotinib]
- S(35) (kinase panels; [7]): 0.21
- number of kinases with ctrl ≤35% (kinase panels; [7]): 94
- pIC50 [2]: 5.95

SMILES: CCc1cc2c(cc1N1CCC(N3CCOCC3)CC1)C(C)(C)c1[nH]c3cc(C#N)ccc3c1C2=O [Alectinib, alectinib]
- S(10) (kinase panels; reported data ref Sakamoto et al, 2011): 0.07
